One assay relates to Streptococcus pyogenes. Briefly: Antibacterial activity against Streptococcus pyogenes ATCC 12344 assessed as bacterial growth inhibition incubated for 18 hrs by micro-dilution broth method. In kind it is functional. (Broth dilution looks for growth in wells or tubes with falling amounts of substance.)
For assay [1], the system named is Acinetobacter baumannii. Briefly: Antibacterial activity against Acinetobacter baumannii ATCC 17978 assessed as bacterial growth inhibition incubated for 18 hrs by micro-dilution broth method. In kind it is functional.
In another assay the test system is Staphylococcus aureus. Briefly: Antibacterial activity against Staphylococcus aureus ATCC 25923 assessed as bacterial growth inhibition incubated for 18 hrs by micro-dilution broth method. The assay is classed as functional.
The subject of assay [2] is Lipid bilayer. Briefly: Binding affinity to bacterial membrane mimic POPG large unilamellar vesicle assessed as bathochromic shift at 125 uM measured at t = 0 by UV-Vis spectrophotometric analysis.
For assay [3], the system named is Klebsiella pneumoniae. Briefly: Antibacterial activity against Klebsiella pneumoniae ATCC 13833 assessed as bacterial growth inhibition incubated for 18 hrs by micro-dilution broth method. In kind it is functional.
The subject of the next assay is Escherichia coli. Briefly: Antibacterial activity against Escherichia coli CCUG assessed as bacterial growth inhibition incubated for 18 hrs by micro-dilution broth method. The assay is classed as functional.
In a further assay the test system is Bacillus subtilis. Briefly: Antibacterial activity against Bacillus subtilis ATCC 6633 assessed as bacterial growth inhibition incubated for 18 hrs by CLSI based micro-dilution broth method. In kind it is functional.
A further assay relates to Pseudomonas aeruginosa. Briefly: Antibacterial activity against Pseudomonas aeruginosa ATCC 27853 assessed as bacterial growth inhibition incubated for 18 hrs by micro-dilution broth method. The assay is classed as functional.
Assay [4] deals with Lipid bilayer. Briefly: Binding affinity to bacterial membrane mimic POPG large unilamellar vesicle assessed as hyperchromic shift at 125 uM measured after 1 hr by UV-Vis spectrophotometric analysis.
Another assay deals with Enterococcus faecalis. Briefly: Antibacterial activity against Enterococcus faecalis ATCC 19433 assessed as bacterial growth inhibition incubated for 18 hrs by micro-dilution broth method. The assay is classed as functional.
The test system of assay [5] is Klebsiella pneumoniae. Briefly: Antibacterial activity against pan drug-resistant Klebsiella pneumoniae S1-081Rb assessed as bacterial growth inhibition incubated for 18 hrs by CLSI based micro-dilution broth method. In kind it is functional.
The test system of the next assay is Enterobacter cloacae. Briefly: Antibacterial activity against Enterobacter cloacae VA-417/02 assessed as bacterial growth inhibition incubated for 18 hrs by CLSI based micro-dilution broth method. The assay is classed as functional.
In assay [6] the test system is Acinetobacter baumannii. Briefly: Antibacterial activity against Acinetobacter baumannii AC-54/97 assessed as bacterial growth inhibition incubated for 18 hrs by CLSI based micro-dilution broth method. The assay is classed as functional.

≈ marks a conversion by molar mass, not a printed value. Calls of active or inactive are those of the source.

The term MIC denotes the smallest concentration in the dilution series that meets the test's criterion for growth inhibition. Turning to `N=C(N)NCCCCCCCCN(CCCCCCCCN)C(=O)N(CCCCCCCCN)CCCCCCCCN`, the MIC in the assay with Streptococcus pyogenes turned out to be 16 µg/mL (≈ 26.2 µM); with Acinetobacter baumannii [1] it was 64 µg/mL (≈ 105 µM); in the assay with Staphylococcus aureus, 2 µg/mL (≈ 3.27 µM); with Klebsiella pneumoniae [3] it was 64 µg/mL (≈ 105 µM); in the assay on Escherichia coli, 32 µg/mL (≈ 52.4 µM); in the assay with Bacillus subtilis, 4 µg/mL (≈ 6.55 µM). For the same compound, the minimal inhibitory concentration (MIC) with Pseudomonas aeruginosa stood at 128 µg/mL (≈ 209 µM); with Enterococcus faecalis it was 32 µg/mL (≈ 52.4 µM). For the same compound, the result in the assay with Lipid bilayer [2] and with Lipid bilayer [4] was Active.

Consider `N=C(NCCCCCCCCNC(=O)N(CCCCCCCCNC(=N)NCC1CC1)CCCCCCCCNC(=N)NCC1CC1)NCC1CC1.O=C(O)C(F)(F)F`, for which the MIC in the assay on Streptococcus pyogenes came to 1 µg/mL; in the assay on Acinetobacter baumannii [1], 64 µg/mL; in the assay with Staphylococcus aureus it was 4 µg/mL; in the assay on Klebsiella pneumoniae [3] it was 8 µg/mL; in the assay with Escherichia coli it was 8 µg/mL; with Bacillus subtilis it was 1 µg/mL. The minimal inhibitory concentration (MIC) came out at 64 µg/mL with Pseudomonas aeruginosa and 8 µg/mL in the assay on Enterococcus faecalis. The outcome with Lipid bilayer [2] and in the assay with Lipid bilayer [4] was Active.

What is called MBC is the lowest tested concentration that kills the bacteria rather than only halting them. As to `N=C(N)NCCCCCCCCN(CCCCCCCCNC(=N)N)C(=O)N(CCCCCCCCNC(=N)N)CCCCCCCCNC(=N)NCC1CC1.O=C(O)C(F)(F)F`, the MIC in the assay with Streptococcus pyogenes was determined as 1 µg/mL; in the assay with Acinetobacter baumannii [1], 8 µg/mL; in the assay with Klebsiella pneumoniae [5], 8 µg/mL; in the assay with Enterobacter cloacae, 8 µg/mL; in the assay on Staphylococcus aureus, 2 µg/mL; in the assay on Acinetobacter baumannii [6], 8 µg/mL. Further, the minimum inhibitory concentration (MIC) stood at 4 µg/mL with Klebsiella pneumoniae [3]; 8 µg/mL in the assay on Escherichia coli; 2 µg/mL in the assay with Bacillus subtilis; 16 µg/mL in the assay with Pseudomonas aeruginosa; 2 µg/mL with Enterococcus faecalis. Further, the minimal bactericidal concentration (MBC) was 16 µg/mL with Klebsiella pneumoniae [5], 8 µg/mL with Enterobacter cloacae and 16 µg/mL in the assay on Acinetobacter baumannii [6].

The values are drawn from ChEMBL document CHEMBL5154741, “Antibacterial alkylguanidino ureas: Molecular simplification approach, searching for membrane-based MoA” (Eur J Med Chem, 2022).
